Test results from patent publication US10206906B2, “Synergistic combination of a phenolic-rich maple syrup extract and an antibiotic” (priority 2015, dated 2019).

Tests used:
[1] = test system: P. mirabilis HI4320; assay: Checkerboard microdilution assay (growth inhibition synergy); type: cell-based, Proteus mirabilis
Experimental: The checkerboard microdilution assay is used for evaluation of in vitro antimicrobial synergy between two compounds (i.e., antibiotic/PRMSE, antibiotic/pure phenolic compound, and pure phenolic compounds with each other). Two-fold serial dilutions are prepared in MHB-II for each of the two compounds under study. The serial dilutions are then loaded into 96 well plates to achieve combinations having different concentrations of each of the two compounds. Each well is subsequently inoculated with 10^6 CFU mL^−1 of the desired bacterial strain and incubated at 37° C. for 18 h under static conditions. The Fractional Inhibitory Concentration Index (FICI) for each combination is calculated by using the following formula: FICcomponent 1=MICcomponent 1, in combination/MICcomponent 1,alone FICI=FICcomponent 1+FICcomponent 2
The FICIs are interpreted as follows: FICI of […] (synergy); 0.5<FICI ≤1 (no interaction/indifference); FICI of >4 (antagonism).

[2] = test system: E. coli CFT073 biofilm; assay: Biofilm formation, microtitre plate crystal violet assay; type: cell-based, Escherichia coli; conditions: p<0.05
Experimental: (§1) Biofilm formation is quantified using the standard microtitre plate model. […] Aliquots (100 μL) of these cultures are transferred into the wells of polystyrene, flat bottom, non-treated 96 well plates (Falcon™, Corning™), in triplicate. For all assays, biofilms are allowed to develop for 16 h at 37° C. under static conditions, after which OD600 values are recorded, the spent broth is decanted from the wells, and the wells are gently rinsed three times with DI water. The washed biofilm is stained with crystal violet (CV). For CV stain assay, 100 μL of 0.1% (w/v) CV is loaded in each well and the plates are incubated for 15 min under static conditions at room temperature. The wells are subsequently rinsed with DI water to remove excess dye and the CV adsorbed to the biomass in each well is solubilized in 100 μL of absolute ethanol for 10 min. The solubilized CV is then quantified (as OD570) using a microplate reader. Control experiments are performed with cell-free broth to adjust for the background signal.

[3] = test system: P. aeruginosa PA14 biofilm; assay: as above; type: cell-based, Pseudomonas aeruginosa; conditions: p<0.05
Experimental: as §1

[4] = test system: P. aeruginosa PAO1 biofilm; assay: as above; type: cell-based, Pseudomonas aeruginosa; conditions: p<0.05
Experimental: as §1

[5] = test system: proton motive force-driven multidrug efflux pump of P. mirabilis HI4320; assay: Ethidium bromide (EtBr) efflux assay; type: cell-based, Proteus mirabilis; conditions: PRMSE, catechol at 0.25 times the MIC; CCCP 100 μM; untreated cells 35.9
Experimental: An overnight grown culture of each strain is diluted 1:100 using MHB-II broth to a final volume of 10 mL and grown to an OD600 of 0.8-1.0 (at 37° C., 150 rpm). […] The tubes are incubated for 1 h (37° C., 150 rpm). The inoculum is then adjusted to 0.4 OD600 with MHB-II broth containing 5 μM EtBr and 2 mL aliquots of this mixture are pelleted (5000×g, 10 min at 4° C.). The pellets are incubated on ice immediately, resuspended in 1 mL of MHB-II, and aliquoted (200 μL) into a polystyrene 96 well black, clear-bottom plate (Corning™, Fisher Scientific, ON, Canada). EtBr efflux from the cells is monitored at room temperature using the microplate reader (ex/em 530/600 nm). Readings are taken at 5 min intervals for 1 h to monitor efflux pump activity. The background fluorescence of the medium is subtracted from all measurements and the assay is repeated independently in triplicate.

[6] = substance alone at sub-lethal concentrations, 16 h
[7] = with ciprofloxacin, both at sub-lethal concentrations

Oc1ccccc1O [catechol, 1,2-dihydroxybenzene]
FIC of ciprofloxacin ([1]; ciprofloxacin in combination with the labelled phenolic constituent): 0.25
FICI, gallic acid ([1]; labelled constituent + gallic acid, * = synergistic): 0.37*
FIC, gallic acid ([1]; labelled constituent combined with gallic acid): 0.13
FIC of compound ([1]; labelled phenolic constituent in combination with ciprofloxacin): 0.25
inhibition of monoculture biofilm formation (OD570/OD600) [2, 6]: significant inhibitory effects
inhibitory effect on biofilm formation, with ciprofloxacin [2, 7]: significant inhibitory effects
inhibition of monoculture biofilm formation (OD570/OD600) [3, 6]: significant inhibitory effects
inhibitory effect on biofilm formation, with ciprofloxacin [3, 7]: significant inhibitory effects
inhibition of monoculture biofilm formation (OD570/OD600) [4, 6]: significant inhibitory effects
inhibitory effect on biofilm formation, with ciprofloxacin [4, 7]: significant inhibitory effects
Efflux pump activity [5]: 33.9%
